Data as given in patent publication US7687643B2, “Process for preparing 3,3-dimethylindolines” (Amgen Inc., priority 2001, dated 2010).

Tested on: Human Umbilical Vein Endothelial cells (VEGF-stimulated)
Test: HUVEC proliferation assay, VEGF-stimulated
Format: cell-based
Conditions: VEGF 50 ng/mL, 72 h, CyQuant, read-out: inhibited VEGF-stimulated HUVEC proliferation at a level
Procedure: Human Umbilical Vein Endothelial cells are purchased from Clonetics, Inc., as cryopreserved cells harvested from a pool of donors. These cells, at passage 1, are thawed and expanded in EBM-2 complete medium, until passage 2 or 3. The cells are trypsinized, washed in DMEM+10% FBS+antibiotics, and spun at 1000 rpm for 10 min. Prior to centrifugation of the cells, a small amount is collected for a cell count. After centrifugation, the medium is discarded, and the cells are resuspended in the appropriate volume of DMEM+10% FBS+antibiotics to achieve a concentration of 3×10^5 cells/mL. Another cell count is performed to confirm the cell concentration. The cells are diluted to 3×10^4 cells/mL in DMEM+10% FBS+antibiotics, and 100 μL of cells are added to a 96-well plate. The cells are incubated at 37° C. for 22 h.
Prior to the completion of the incubation period, compound dilutions are prepared. Five-point, five-fold serial dilutions are prepared in DMSO, at concentrations 400-fold greater than the final concentrations desired. 2.5 μL of each compound dilution are diluted further in a total of 1 mL DMEM+10% FBS+antibiotics (400× dilution). Medium containing 0.25% DMSO is also prepared for the 0 μM compound sample. At the 22-hour timepoint, the medium is removed from the cells, and 100 μL of each compound dilution is added. The cells are incubated at 37° C. for 2-3 h.
During the compound pre-incubation period, the growth factors are diluted to the appropriate concentrations. Solutions of DMEM+10% FBS+antibiotics, containing either VEGF or bFGF at the following concentrations: 50, 10, 2, 0.4, 0.08, and 0 ng/mL are prepared. For the compound-treated cells, solutions of VEGF at 550 ng/mL or bFGF at 220 ng/mL for 50 ng/mL or 20 ng/mL final concentrations, respectively, are prepared since 10 μL of each will be added to the cells (110 μL final volume). At the appropriate time after adding the compounds, the growth factors are added. VEGF is added to one set of plates, while bFGF is added to another set of plates. For the growth factor control curves, the media on wells B4-G6 of plates 1 and 2 are replaced with media containing VEGF or bFGF at the varying concentrations (50-0 ng/mL). The cells are incubated at 37° C. for an additional 72 h.
At the completion of the 72 h incubation period, the medium is removed, and the cells are washed twice with PBS. After the second wash with PBS, the plates are tapped gently to remove excess PBS, and the cells are placed at −70° C. for at least 30 min. The cells are thawed and analyzed using the CyQuant fluorescent dye (Molecular Probes C-7026), following the manufacturer's recommendations. The plates are read on a Victor/Wallac 1420 workstation at 485 nm/530 nm (excitation/emission). Raw data are collected and analyzed using a 4-parameter fit equation in XLFit. IC50 values are then determined.

SMILES	IC50
CNc1nccc(CNc2ncccc2C(=O)Nc2ccc3c(c2)CN(C)CC3(C)C)n1 [Example 1041, 2-(((2-(methylamino)-4-pyrimidinyl)methyl)amino)-N-(2,4,4-trimethyl-1,2,3,4-tetrahydro-7-isoquinolinyl)-3-pyridinecarboxamide]	< 50 nM
O=C(Nc1ccc(C(F)(F)C(F)(F)F)cc1)c1cccnc1NCc1ccncc1 [Example 78, N-[4-(1,1,2,2,2-Pentafluoroethyl)phenyl]{2-[(4-pyridylmethyl)amino](3-pyridyl)}carboxamide]	< 50 nM
COc1nccc(CNc2ncccc2C(=O)Nc2ccc3c(c2)CNCC3(C)C)n1 [Example 1132, N-(4,4-Dimethyl-1,2,3,4-tetrahydro-isoquinolin-7-yl)-2-[(2-methoxy-pyrimidin-4-ylmethyl)-amino]-nicotinamide]	< 50 nM
O=C(Nc1ccc(C(F)(F)C(F)(F)F)c(OCCN2CCCCC2)c1)c1cccnc1NCc1ccncc1 [Example 955, N-[4-Pentafluoroethyl-3-(2-piperidin-1-yl-ethoxy)-phenyl]-2-[(pyridin-4-ylmethyl)-amino]-nicotinamide]	< 50 nM
O=C(Nc1cccc(C(F)(F)F)c1)c1ccc(F)nc1NCc1ccncc1 [Example 156, {6-Fluoro-2-[(4-pyridylmethyl)amino](3-pyridyl)}-N-[3-(trifluoromethyl)phenyl]carboxamide]	< 50 nM
O=C(Nc1ccc(Cl)cc1)c1cccnc1NCc1ccc2ncccc2c1 [Example 21, N-(4-Chlorophenyl){2-[(6-quinolylmethyl)amino](3-pyridyl)}carboxamide]	< 50 nM
CNc1nccc(CNc2ncccc2C(=O)Nc2ccc(C(F)(F)F)c(OCCNS(C)(=O)=O)c2)n1 [Example 1033, 2-(((2-(Methylamino)-4-pyrirnidinyl)methyl)amino)-N-(3-((2-((methylsulfonyl)amino)ethyl)oxy)-4-(trifluoromethyl)phenyl)-3-pyridinecarboxamide]	< 50 nM
CC1(C)CNC(=O)c2cc(NC(=O)c3cccnc3NCc3ccncc3)ccc21 [Example 946, N-(4,4-Dimethyl-1-oxo-1,2,3,4-tetrahydro-isoquinolin-7-yl)-2-[(pyridin-4-ylmethyl)-amino]-nicotinamide]	< 50 nM
CNc1nccc(CNc2ncccc2C(=O)Nc2ccc3c(c2)CNCC3(C)C)n1 [Example 1038, N-(4,4-Dimethyl-1,2,3,4-tetrahydro-7-isoquinolinyl)-2-(((2-(methylamino)-4-pyrimidinyl)methyl)amino)-3-pyridinecarboxamide]	< 50 nM
CN1CCC(C(C)(C)c2ccc(NC(=O)c3cccnc3NCc3ccnc4ccccc34)cc2)CC1 [Example 1028, N-(4-(1-Methyl-1-(1-methyl-4-piperidinyl)ethyl)phenyl)-2-((4-quinolinylmethyl)amino)-3-pyridinecarboxamide]	< 50 nM
CNc1nccc(CNc2ncccc2C(=O)Nc2cc(OC[C@H]3CCCN3C(C)=O)cc(C(F)(F)F)c2)n1 [Example 1085, N-(3-((((2R)-1-acetyl-2-pyrrolidinyl)methyl)oxy)-5-(trifluoromethyl)phenyl)-2-(((2-(methylamino)-4-pyrimidinyl)methyl)amino)-3-pyridinecarboxamide]	< 50 nM
CNc1nccc(CNc2ncccc2C(=O)Nc2ccc(C(C)(C)C3CCN(C)CC3)cc2)n1 [Example 1043, 2-(((2-(methylamino)-4-pyrimidinyl)methyl)amino)-N-(4-(1-methyl-1-(1-methyl-4-piperidinyl)ethyl)phenyl)-3-pyridinecarboxamide]	< 50 nM
CN1CCC[C@@H]1COc1cc(NC(=O)c2cccnc2NCc2ccncc2)cc(C(F)(F)F)c1 [Example 917, (R) N-[3-(1-Methyl-pyrrolidin-2-ylmethoxy)-5-trifluoromethyl-phenyl]-2-[(pyridin-4-ylmethyl)-amino]-nicotinamide]	< 50 nM
CC1(C)CCNc2cc(NC(=O)c3cccnc3NCc3ccncc3)ccc21 [Example 1109, N-(4,4-Dimethyl-1,2,3,4-tetrahydro-quinolin-7-yl)-2-[(pyridin-4-ylmethyl)-amino]-nicotinamide]	< 50 nM
CNc1cc(CNc2ncccc2C(=O)Nc2cc(OC[C@@H]3CCCO3)cc(C(F)(F)F)c2)ccn1 [Example 1080, 2-(((2-(methylamino)-4-pyridinyl)methyl)amino)-N-(3-(((2S)-tetrahydro-2-furanylmethyl)oxy)-5-(trifluoromethyl)phenyl)-3-pyridinecarboxamide]	< 50 nM
O=C(Nc1cc(CCCN2CCOCC2)cc(C(F)(F)F)c1)c1cccnc1NCc1ccncc1 [Example 964, N-[3-(3-Morpholin-4-yl-propyl)-5-trifluoromethyl-phenyl]-2-[(pyridin-4-ylmethyl)-amino]-nicotinamide]	< 50 nM
COC(=O)C(C)(C)c1ccc(NC(=O)c2cccnc2NCc2ccncc2)cc1 [Example 985, 2-Methyl-2-[4-({2-[(pyridin-4-ylmethyl)-amino]-pyridine-3-carbonyl}-amino)-phenyl]-propionic acid methyl ester]	< 50 nM
CC1(C)CNCc2cc(NC(=O)c3cccnc3NCc3ccnc(N)c3)ccc21 [Example 1168, 2-(((2-Amino-4-pyridinyl)methyl)amino)-N-(4,4-dimethyl-1,2,3,4-tetrahydro-7-isoquinolinyl)-3-pyridinecarboxamide]	< 50 nM
CC1(C)CNc2cc(NC(=O)c3cccnc3NCc3ccncc3)ccc21 [Example 133, N-(3,3-Dimethylindolin-6-yl){2-[(4-pyridylmethyl)amino](3-pyridyl)}carboxamide]	< 50 nM
CC(C)(C)c1ccc(NC(=O)c2cccnc2NCc2ccnc(Cl)c2)cc1 [Example 138, N-[4-(tert-Butyl)phenyl](2-{[(2-chloro(4-pyridyl))methyl]amino}(3-pyridyl))carboxamide]	< 50 nM
O=C(Nc1ccc(Cl)c(Cl)c1)c1cccnc1NCc1ccncc1 [Example 4, N-(3,4-Dichlorophenyl){2-[(4-pyridylmethyl)amino](3-pyridyl)}-carboxamide]	< 50 nM
O=C(Nc1cc(OCC2CNC2)cc(C(F)(F)F)c1)c1cccnc1NCc1ccncc1 [Example 977, N-[3-(azetidin-3-ylmethoxy)-5-trifluoromethyl-phenyl]-2-[(pyridin-4-ylmethyl)-amino]-nicotinamide]	< 50 nM
CC(C)c1ccc(NC(=O)c2cc(F)cnc2NCc2ccncc2)cc1 [Example 67, {5-Fluoro-2-[(4-pyridylmethyl)amino](3-pyridyl)}-N-[4-(isopropyl)phenyl]carboxamide]	< 50 nM
CNc1nccc(CNc2ncccc2C(=O)Nc2ccc3c(c2)NCC3(C)C)n1 [Example 1040, N-(3,3-Dimethyl-2,3-dihydro-1H-indol-6-yl)-2-(((2-(methylamino)-4-pyrimidinyl)methyl)amino)-3-pyridinecarboxamide]	< 50 nM
CCN1CCC(C)(C)c2ccc(NC(=O)c3cccnc3NCc3ccncc3)cc21 [Example 1124, N-(1-Ethyl-4,4-dimethyl-1,2,3,4-tetrahydro-quinolin-7-yl)-2-[(pyridin-4-ylmethyl)-amino]-nicotinamide]	< 50 nM
O=C(Nc1ccc(Cl)cc1)c1cccnc1NCc1ccnc2ccccc12 [Example 20, N-(4-Chlorophenyl){2-[(4-quinolylmethyl)amino](3-pyridyl)}carboxamide]	< 50 nM
COc1nccc(CNc2ncccc2C(=O)Nc2ccc3c(c2)N(C(C)=O)CC3(C)C)n1 [Example 1046, N-(1-acetyl-3,3-dimethyl-2,3-dihydro-1H-indol-6-yl)-2-(((2-(methyloxy)-4-pyrimidinyl)methyl)amino)-3-pyridinecarboxamide]	< 50 nM
CC(CNc1cc(CNc2ncccc2C(=O)Nc2ccc3c(c2)NCC3(C)C)ccn1)N1CCOCC1 (centres unmarked) [Example 1008, N-(3,3-dimethyl-2,3-dihydro-1H-indol-6-yl)-2-{[2-(2-morpholin-4-yl-propylamino)-pyridin-4-ylmethyl]-amino}-nicotinamide]	< 50 nM
CC1(C)CCNc2cc(NC(=O)c3cccnc3NCc3ccncn3)ccc21 [Example 1110, N-(4,4-Dimethyl-1,2,3,4-tetrahydro-quinolin-7-yl)-2-[(pyrimidin-4-ylmethyl)-amino]-nicotinamide]	< 50 nM
